Reference: patent US8022040B2, “Hydroxyapatite-binding peptides for bone growth and inhibition” (The Regents of the University of California, priority 2004, dated 2011)
Read-outs that look alike come from different tables or passages of the source. Positions of bridges follow the written chain, without caps; N, C: chain ends. No end group written: not given here.

Tests used:
[1] = for HA nucleation templated by peptide deposited from cosolvent: 1.5 mg/ml in acetonitrile and water (1:1/v:v), dried on grid, soaked in mineral precursor solutions; for HA nucleation templated by peptide solution in 100% water: compared to peptides 1 and 2
Protocol: (CaCl2 (10 mM)+Na2HPO4 (5 mM)→Ca10(OH)2(PO4)6). The inset photographs show the X-ray diffraction patterns of the crystals at each timepoint.
In order to investigate the nucleation ability of these binding peptides, the major 12-mer linear binding peptide was synthesized by solid phase synthetic method and subjected to HA-mineralization on holey carbon film-coated TEM grids according to J. D. Hartgerink, E. Beniash, S. I. Stupp, Science, 294, 1684 (2001), which is hereby incorporated by reference.
In order to study kinetics of HA nucleation by this peptide suspension, time dependence nucleation was investigated by preparing parallel TEM samples where HA was nucleated for 30 min (FIG. 20, Panel C), 1 hr (FIG. 20, Panel D), and 2 hrs (FIG. 20, Panel E) by same concentration peptide suspension.

[2] = Flow cytometric measurement of fluorescence intensity of binding viruses on HA surfaces
Protocol: (§1) Single crystalline and polycrystalline HA were freshly etched to remove carbonated contaminates and incubated with 1×10^10 pfu of phage of W4a-4-14 (Single 14), W4a-4-15 (single 15), HA-4-3 (poly 3), wild type (wild) phages suspension for these assays.
(§2) As described in Example 1, 4 mg of single crystalline HA was freshly etched to remove carbonated contaminates and incubated with 1×10^10 pfu of phage of constrained W4a-4-14 (Single 14), W4a-4-15 (single 15), HA-4-3 (poly 3), wild type (wild) phages suspension. After washing off with TBST (0.5%) ten times, the bound phage was eluted using glycine-HCl […] and titered to count number of bound phage.
After 30 minutes incubation of 4 mg/ml of HA crystals with ˜10^10 pfu/ml of each phage, CLP7, CLP12, or the wild type phages, the HA crystals were washed ten times with Tris-buffered saline solution (pH 7.5) contained 0.5% Tween 20. The phage bound to HA surfaces was labeled by R-phycoerythrin-conjugated monoclonal pVIII antibody (Amersham Pharmacia Biotech, UK), and the fluorescence images were acquired (Nikon fluorescence microscope, Japan) and the fluorescence intensity was quantified by FACS Calibur flow cytometer (BD Biosciences, Calif.).

[3] = Phage titering assay counting phage eluted from HA; format: binding; conditions: FIG. 12 Panel B; comparing to the wild type viruses / the other three peptides; TBST (0.5%) wash, glycine-HCl elution
Protocol: as §1, §2

[4] = 1.5 mg/ml peptide, two hours mineralization, 5 mM Na2HPO4 + 10 mM CaCl2

| Substance | HA deposition templated by peptide (TEM/SAED) [1, 4] | HA nucleation templated by peptide deposited from cosolvent [1] | HA nucleation templated by peptide solution in 100% water [1] | further results |
| --- | --- | --- | --- | --- |
| NIYHPTPPQSVH-GGGK-biotin [control peptide 1] | amorphous calcium phosphate deposition without any clear SAED patterns |  |  |  |
| NPDHPDIPQDVH-GGGK-biotin [Control peptide 2] | amorphous deposition of calcium phosphate without any clear diffraction patterns |  |  |  |
| NPYHPTIPQSVH [Single 15] |  |  |  | improved binding affinity (fluorescence intensity of binding viruses on HA surfaces) ([2]; flow cytometry, FIG. 12 Panel A, phage-displayed peptide compared to wild type phage, 1×10^10 pfu): around 50% |
| NPYHPTIPQSVH-GGGK-biotin [peptide 3] |  | nucleation phenomena similar to those templated by HA binding peptides | reduced HA-nucleation ability with different morphology of HA crystals |  |
| APYHPTIPASVH-GGGK-biotin [peptide 5] |  | nucleation phenomena similar to those templated by HA binding peptides | relatively bigger amorphous calcium phosphate aggregation |  |
| NPYHPTIPQSVH-GGGK-biotin [single 15-biotin] | well crystallized HA deposition |  |  | HA deposition templated by peptide (TEM/SAED) ([1]; 15 mg/ml peptide, two hours, same amount of CaCl2 and Na2HPO4): well-crystallized HA crystals; HA nucleation, time dependence (TEM/SAED) ([1]; 30 min): amorphous deposition of calcium phosphate; HA nucleation, time dependence (TEM/SAED) ([1]; after 2 hours): fully developed HA crystals were nucleated |
| NPYAPTIPQSVA-GGGK-biotin [peptide 4] |  | nucleation phenomena similar to those templated by HA binding peptides | relatively bigger amorphous calcium phosphate aggregation |  |
| Cys Asn Tyr Pro Thr Leu Lys Ser Cys (CNYPTLKSC; disulfide 1-9 (inferred); also: displayed on M13 phage) [single 14] |  |  |  | binding to HA surfaces, rank among viruses tested ([2]; phage-displayed peptides single 14, single 15, poly 3 and wild type): bind best to HA surfaces among all viruses tested; strength of HA binding relative to comparators [3]: almost three times stronger |
